Assay results published in patent US8148112B2, “Sugar chain containing 4-position halogenated galactose and application thereof” (National University Corporation Hokkaido University, priority 2005, dated 2012).

T1: rat-derived α2,6-N-sialyltransferase (Rattus norvegicus, UniProt P13721)
T1 construct: purchased Calbiochem
T1 sequence (P13721 1-403): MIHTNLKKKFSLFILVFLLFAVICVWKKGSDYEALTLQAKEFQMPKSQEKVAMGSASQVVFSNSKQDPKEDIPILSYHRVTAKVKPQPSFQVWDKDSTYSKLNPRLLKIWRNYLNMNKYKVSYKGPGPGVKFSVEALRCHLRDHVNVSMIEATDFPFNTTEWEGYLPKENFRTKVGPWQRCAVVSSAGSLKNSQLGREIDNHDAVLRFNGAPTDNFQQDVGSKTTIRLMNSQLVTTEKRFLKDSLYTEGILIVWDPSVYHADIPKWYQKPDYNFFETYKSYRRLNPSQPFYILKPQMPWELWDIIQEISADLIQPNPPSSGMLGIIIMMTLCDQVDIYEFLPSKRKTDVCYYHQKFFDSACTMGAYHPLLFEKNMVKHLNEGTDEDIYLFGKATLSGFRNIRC

T2: rat-derived α2,3-N-sialyltransferase (Rattus norvegicus, UniProt Q02734)
T2 construct: purchased Calbiochem
T2 sequence (Q02734 1-374): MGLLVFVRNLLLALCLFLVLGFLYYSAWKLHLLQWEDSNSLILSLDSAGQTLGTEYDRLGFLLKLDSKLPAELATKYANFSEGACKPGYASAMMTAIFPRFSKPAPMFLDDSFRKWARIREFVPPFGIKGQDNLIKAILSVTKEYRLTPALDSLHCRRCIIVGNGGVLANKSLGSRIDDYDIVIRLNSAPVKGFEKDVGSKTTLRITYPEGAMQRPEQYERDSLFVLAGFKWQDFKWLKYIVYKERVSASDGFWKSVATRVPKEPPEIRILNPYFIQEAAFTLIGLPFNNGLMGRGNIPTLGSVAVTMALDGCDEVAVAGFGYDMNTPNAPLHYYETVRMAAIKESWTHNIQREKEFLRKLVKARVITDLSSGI

B1: rat-derived α2,3-N-sialyltransferase (Rattus norvegicus) (protein)
chain: T2 sequence (Q02734 1-374)
B2: rat-derived α2,6-N-sialyltransferase (Rattus norvegicus) (protein)
chain: T1 sequence (P13721 1-403)
B3: GalK: E. coli-derived galactokinase, purified enzyme liquid (protein, UniProt P0A6T3 2-382, looked up)
Galactokinase: SLKEKTQSLFANAFGYPATHTIQAPGRVNLIGEHTDYNDGFVLPCAIDYQTVISCAPRDDRKVRVMAADYENQLDEFSLDAPIVAHENYQWANYVRGVVKHLQLRNNSFGGVDMVISGNVPQGAGLSSSASLEVAVGTVLQQLYHLPLDGAQIALNGQEAENQFVGCNCGIMDQLISALGKKDHALLIDCRSLGTKAVSMPKGVAVVIINSNFKRTLVGSEYNTRREQCETGARFFQQPALRDVTIEEFNAVAHELDPIVAKRVRHILTENARTVEAASALEQGDLKRMGELMAESHASMRDDFEITVPQIDTLVEIVKAVIGDKGGVRMTGGGFGGCIVALIPEELVPAVQQAVAEQYEAKTGIKETFYVCKPSQGAGQC

Tests used:
[1] = molecular target: T1, rat-derived α2,6-N-sialyltransferase; assay: Kinetic analysis of α2,6-sialyltransfer reaction to 4MU-4F-LacNAc; assay type: biochemical; conditions: for Activity: α2,6-sialyltransferase
Description: (§1) The mixture was allowed to react at 25° C.
Precisely 120 minutes after initiation of the reaction, the reaction was terminated through addition of 1M NaOH (⅕ times in volume). The reaction mixture was neutralized and diluted with an HPLC eluent, and the diluted product was analyzed through HPLC. […] Note that “1U” was defined as an enzyme amount which realizes formation of sialylated sugar in an amount of 1 μmol/min under the above conditions.
The mixture was allowed to react at 25° C. for 10 minutes.
The enzymatic activity values at respective concentrations are compared.

[2] = molecular target: T2, rat-derived α2,3-N-sialyltransferase; assay: Kinetic analysis of α2,3-sialyltransfer reaction to 4MU-4F-LacNAc; assay type: biochemical; conditions: for Activity: α2,3-sialyltransferase
Description: as §1
Precisely 60 minutes after initiation of the reaction, the reaction was terminated through addition of 80% acetonitrile (4 times in volume) and vigorous stirring. The reaction mixture was diluted, and the diluted product was analyzed through HPLC. […] Note that “1U” was defined as an enzyme amount which realizes sialylated sugar to form in an amount of 1 μmol/min under the above conditions.
The mixture was allowed to react at 25° C. for eight minutes.

[3] = molecular target: T1, rat-derived α2,6-N-sialyltransferase; assay: Enzymatic α2,6-sialyltransfer reaction to pyridylaminated (PA) 4F-galactosylchitobiose, HPLC percent conversion; assay type: biochemical; conditions: 10 μM acceptor, 100 μM CMP-NeuAc, 40 mU/mL enzyme, 25° C.; percent conversion compared with PA galactosylchitobiose
Description: (§2) To a 10 mM HEPES-NaOH buffer (pH 7.5) containing 10 mM manganese chloride, 100 mM sodium chloride, 100 μM CMP-NeuAc, 0.02% (w/v) BSA, and 10 μM pyridylaminated (PA) 4F-galactosylated chitobiose, rat-derived α2,6-N-sialyltransferase (product of Calbiochem) (40 mU/mL-reaction mixture) was added, and the mixture was allowed to react at 25° C. In a similar manner, a similar mixture employing pyridylaminated (PA) galactosylated chitobiose as an acceptor was allowed to react as a control reaction.
An aliquot was sampled from the reaction mixture at hour 1, hour 2.5, hour 8, and hour 24 after initiation of the reaction. Finally, the reaction was terminated through addition of a mixture of 0.5M triethylamine-acetic acid (pH 7.3) and acetonitrile (25:75) (19 times in volume) and vigorous stirring. The product was analyzed through HPLC. […] Mass analysis detected an [M+H]^+ peak (m/z 659.74) attributed to compound 19, thereby confirming formation of compound 19. Also, in the control reaction employing UDP-Gal, an [M+H]^+ peak (m/z 657.74) attributed to compound 20 was detected through MALDI-TOF-MS, confirming formation of compound 20. […]

[4] = molecular target: T2, rat-derived α2,3-N-sialyltransferase; assay: Enzymatic α2,3-sialyltransfer reaction to pyridylaminated (PA) 4F-galactosylchitobiose, HPLC percent conversion; assay type: biochemical; conditions: 10 μM acceptor, 100 μM CMP-NeuAc, 100 mU/mL enzyme, 25° C.; percent conversion compared with PA galactosylchitobiose
Description: as §2, with “α2,3-N-sialyltransferase” for “α2,6-N-sialyltransferase”, “(100” for “(40”
An aliquot was sampled from the reaction mixture at hour 2.5 and hour 24 after initiation of the reaction. Finally, the reaction was terminated through addition of 10 mM sodium phosphate (pH 4.3) (9 times in volume) and vigorous stirring. The product was analyzed through HPLC employing a C30-UG-5 column. […] A fraction corresponding to each peak was collected and dried under reduced pressure. […] Mass analysis detected, in the reaction employing pyridylaminated (PA) 4F-galactosylchitobiose, an [M+H]^+ peak (m/z 959.45), thereby confirming formation of compound 17. Also, in the reaction employing pyridylaminated (PA) galactosyl chitobiose, an [M+H]^+ peak (m/z 957.31) was detected, thereby confirming formation of compound 18. […]

[5] = substrate: CC(=O)NC1C(O)[C@H](O[C@@H]2OC(CO)[C@H](F)[C@H](O)C2O)[C@H](CO)O[C@H]1Oc1ccc2c(C)cc(=O)oc2c1; assay: purified protein, by the assay type; conditions: other: 1/[S]-1/v plotting, 200 μM CMP-NeuAc, 25° C., pH 7.5
[6] = substrate: CC(=O)NC1C(O)[C@H](O[C@@H]2OC(CO)[C@H](O)[C@H](O)C2O)[C@H](CO)O[C@H]1Oc1ccc2c(C)cc(=O)oc2c1; assay: purified protein, by the assay type; conditions: 25° C., pH 7.5
[7] = Galactokinase (GalK) activity of the enzyme liquid; assay type: biochemical, E. coli; conditions: galactokinase activity of purified enzyme liquid, method by Takeda et al.
Description: E. coli (JM109 strain) (from Takara Bio) was transformed with a pTrc-galK plasmid (JP-A-2002-335988) in which a gene encoding E. coli-derived GalK has been inserted. The transformed cells were inoculated to a 2×YT medium (100 mL) containing 100 μg/mL ampicillin, followed by shake culturing at 37° C. When the number of the cells reached 1×10^8 cells/mL, isopropyl-p-thiogalactoside (IPTG) was added to the culture so as to adjust the final concentration to 0.2 mM, and shake culture was continued for further eight hours. After completion of culturing, cells were collected through centrifugation (9,000×g, 20 min) and suspended in a buffer (20 mM Tris-HCl (pH 7.5) and 1 mM magnesium chloride) (10 mL). The cells were disrupted through ultrasonication, and the product was centrifuged (20,000×g, 10 min), to thereby remove cell residues.
The thus-produced fraction was employed as an enzyme liquid in the following synthesis reactions. The galactokinase (GalK) activity of the enzyme liquid was determined (Table 1). In the present invention, GalK activity was determined through a method by Takeda et al. (JP-A-2002-335988).

[8] = other: 1/[S]-1/v plotting, 200 μM CMP-NeuAc
[9] = other: rat-derived α2,6-sialyltransferase 40 mU/mL, 10 minutes, 1/[S]-1/v plotting

Molecule	Activity ([1]; acceptor concentration 20 μM)	Activity ([1]; acceptor concentration 40 μM)	Activity ([1]; acceptor concentration 80 μM)	Activity ([1]; acceptor concentration 120 μM)	Activity ([1]; acceptor concentration 150 μM)	Activity ([2]; acceptor concentration 20 μM)	Activity ([2]; acceptor concentration 40 μM)	Activity ([2]; acceptor concentration 80 μM)	Activity ([2]; acceptor concentration 150 μM)	also measured
CC(=O)NC1C(O)[C@H](O[C@@H]2OC(CO)[C@H](F)[C@H](O)C2O)[C@H](CO)O[C@H]1Oc1ccc2c(C)cc(=O)oc2c1 (some centres unmarked) [4MU-4F-LacNAc, 4-methylumbelliferyl 4F—N-acetyllactosamine]	0.07743 mU/mL	0.1561 mU/mL	0.3223 mU/mL	0.4596 mU/mL	0.6348 mU/mL	0.9972 mU/mL	1.756 mU/mL	3.214 mU/mL	4.541 mU/mL	sialyltransferase activity of α2,6-sialyltransferase with respect to acceptor ([1]; compared with 4MU-LacNAc at respective concentrations): clearly decreased; catalytic efficiency of α2,3-sialyltransferase relative to that with respect to 4MU-LacNAc ([2]; compared with 4MU-LacNAc): ≤ 6%
CC(=O)NC1C(O)[C@H](O[C@@H]2OC(CO)[C@H](O)[C@H](O)C2O)[C@H](CO)O[C@H]1Oc1ccc2c(C)cc(=O)oc2c1 (some centres unmarked) [4MU-LacNAc, reference compound]	0.8800 mU/mL	1.667 mU/mL	2.504 mU/mL	3.734 mU/mL	4.828 mU/mL	16.20 mU/mL	28.50 mU/mL	45.36 mU/mL	66.23 mU/mL	
CC(=O)NC(CNc1ccccn1)[C@H](O)C(O[C@@H]1OC(CO)[C@@H](O[C@@H]2OC(CO)[C@H](F)[C@H](O)C2O)[C@H](O)C1NC(C)=O)C(O)CO (some centres unmarked) [pyridylaminated (PA) 4F-galactosylchitobiose]										reactivity of α2,6-sialyltransferase [3]: considerably decrease; reactivity of α2,3-sialyltransferase [4]: considerably decrease
B1										Km [5]: 188 µM; Vmax [5]: 12.60 nmol/min/mg; Km [6, 8]: 129 µM; Vmax [6, 8]: 146.9 nmol/min/mg
B2										Km [6, 9]: 217 µM; Vmax [6, 9]: 65.24 nmol/min/mg
B3										Enzymatic activity [7]: 23.1 units/mg protein
